In brackets after ≈: the same amount, converted by molar mass.
What was measured:
[1] = Aqueous solubility of compound in PBS buffer at pH 7.4 by HPLC analysis; assay type: physicochemical
[2] = target: Tyrosine-protein kinase BTK (Homo sapiens, UniProt Q06187); assay: Inhibition of BTK (unknown origin) by HTRF analysis
Ramos = assay: Antiproliferative activity against human Ramos cells expressing BTK assessed as inhibition of cell proliferation incubated for 48 hrs by CCK-8 assay; assay type: functional, cell-based
U-937 [3] = assay: Antiproliferative activity against human U-937 cells expressing BTK assessed as inhibition of cell proliferation incubated for 48 hrs by CCK-8 assay; assay type: functional, cell-based; conditions: U-937, 48 h
U-937 [4] = assay: Antitumor activity against human U-937 cells xenografted in BALB/c mouse assessed as tumor growth inhibition at 50 mg/kg, po administered once a day for 14 days; assay type: functional; conditions: U-937, 336 h, time 14 day, read-out: TGI
[5] = Metabolic stability in rat liver microsome measured for 60 mins by UHPL-UV-HRMS analysis; assay type: ADME; conditions: microsomes, 1 h
[6] = Cmax in male Sprague-Dawley rat at 10 mg/kg, po measured up to 5 hrs by LC-MS/MS analysis; assay type: ADME, organism-based; conditions: in vivo
[7] = AUC (0 to t) in male Sprague-Dawley rat at 10 mg/kg, po measured up to 24 hrs by LC-MS/MS analysis; assay type: ADME, organism-based; conditions: in vivo
[8] = MRT (0 to 5 hrs) in male Sprague-Dawley rat at 10 mg/kg, po measured up to 5 hrs by LC-MS/MS analysis; assay type: ADME, organism-based; conditions: in vivo
[9] = AUC (0 to 5 hrs) in male Sprague-Dawley rat at 10 mg/kg, po measured up to 5 hrs by LC-MS/MS analysis; assay type: ADME, organism-based; conditions: in vivo
[10] = Tmax in male Sprague-Dawley rat at 10 mg/kg, po measured up to 5 hrs by LC-MS/MS analysis; assay type: ADME, organism-based; conditions: in vivo

Chain of Tyrosine-protein kinase BTK (Q06187 whole entry): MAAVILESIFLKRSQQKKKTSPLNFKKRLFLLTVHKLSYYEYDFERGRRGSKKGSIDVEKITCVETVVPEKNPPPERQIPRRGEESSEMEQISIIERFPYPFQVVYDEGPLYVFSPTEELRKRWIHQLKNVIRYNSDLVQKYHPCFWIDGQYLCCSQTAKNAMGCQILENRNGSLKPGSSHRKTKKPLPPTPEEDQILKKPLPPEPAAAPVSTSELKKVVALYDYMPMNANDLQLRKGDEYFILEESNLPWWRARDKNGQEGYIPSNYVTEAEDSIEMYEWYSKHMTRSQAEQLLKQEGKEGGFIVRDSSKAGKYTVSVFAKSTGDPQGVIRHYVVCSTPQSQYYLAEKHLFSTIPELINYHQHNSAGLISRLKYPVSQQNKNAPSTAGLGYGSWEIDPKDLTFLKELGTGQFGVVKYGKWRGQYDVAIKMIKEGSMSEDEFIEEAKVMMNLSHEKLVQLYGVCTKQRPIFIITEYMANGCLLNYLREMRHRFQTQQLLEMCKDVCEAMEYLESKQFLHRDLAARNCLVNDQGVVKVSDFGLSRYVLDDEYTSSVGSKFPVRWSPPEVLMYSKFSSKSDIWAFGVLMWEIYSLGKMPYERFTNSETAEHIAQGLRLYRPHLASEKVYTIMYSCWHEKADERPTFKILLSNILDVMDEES

| SMILES | IC50 [2] | IC50 (Ramos) | IC50 (U-937 [3]) | further results |
| --- | --- | --- | --- | --- |
| Cc1c(-c2cc(CO)c3c(=O)[nH]c4cc(C(C)(C)O)ccc4n23)cccc1-n1c(=O)[nH]c2c(F)cccc2c1=O | 0.327 µM | – | – | solubility [1]: 5.5 µg/mL (≈ 10.2 µM) |
| Cc1c(-c2c(C#N)cc3c(=O)[nH]c4cc(C(C)(C)O)ccc4n23)cccc1-n1c(=O)[nH]c2c(F)cccc2c1=O | > 1 µM | – | – | – |
| Cc1c(-c2ccc3c(=O)[nH]c4cc(C(C)(C)O)ccc4n23)cccc1-n1c(=O)[nH]c2c(F)cc(F)cc2c1=O | 0.0072 µM | 35.6 µM | > 40 µM | – |
| Cc1c(-c2ccc3c(=O)[nH]c4cc(CN5CCOCC5)ccc4n23)cccc1-n1c(=O)[nH]c2c(F)cccc2c1=O | 0.0334 µM | – | – | – |
| Cc1c(-c2ccc3c(=O)[nH]c4cc(C(C)(C)O)ccc4n23)cccc1-n1c(=O)[nH]c2cccc(F)c2c1=O | 0.0121 µM | 17.9 µM | 6.2 µM | – |
| Cc1c(-c2ccc3c(=O)[nH]c4cc(C(C)(C)O)ccc4n23)cccc1-n1c(=O)[nH]c2cc(C3CC3)ccc2c1=O | 0.0168 µM | 8.7 µM | 13.8 µM | – |
| Cc1c(NC(=O)c2cccc(F)c2N)cccc1-c1ccc2c(=O)[nH]c3cc(C(C)(C)O)ccc3n12 | 0.0492 µM | – | – | – |
| C=CC(=O)N1CCC[C@@H](n2nc(-c3ccc(Oc4ccccc4)cc3)c3c(N)ncnc32)C1 [IBRUTINIB] | – | 15.1 µM | 3.7 µM | inhibition in vivo at 50 mg/kg (U-937 [4]): 41.1% |
| Cc1cc2c(=O)[nH]c3cc(C(C)(C)O)ccc3n2c1-c1cccc(-n2c(=O)[nH]c3c(F)cccc3c2=O)c1C | 0.011 µM | 15 µM | 6 µM | Cmax [6]: 5.16 ng/mL; MRT last at 5 h [8]: 1.17 h; AUC(0-t) at 5 h [9]: 8.45 ng·h/mL; Tmax [10]: 1 h |
| Cc1c(-c2c(F)cc(C(N)=O)c3[nH]c4c(c23)CC[C@H](C(C)(C)O)C4)cccc1-n1c(=O)c2cccc(F)c2n(C)c1=O [BMS-986142] | 0.00042 µM | 13.6 µM | 9.3 µM | – |
| Cc1c(-c2ccc3n2Cc2ccc(C(C)(C)O)cc2NC3=O)cccc1-n1c(=O)[nH]c2c(F)cccc2c1=O | > 1 µM | – | – | solubility [1]: < 0.5 µg/mL |
| [2H]C([2H])([2H])C(O)(c1ccc2c(c1)[nH]c(=O)c1ccc(-c3cccc(-n4c(=O)[nH]c5c(F)cccc5c4=O)c3C)n12)C([2H])([2H])[2H] | 0.0124 µM | 19 µM | 13.3 µM | Cmax [6]: 10.4 ng/mL; MRT last at 5 h [8]: 2.05 h; AUC(0-t) at 5 h [9]: 31.1 ng·h/mL; Tmax [10]: 0.5 h |
| Cc1c(-c2ccc3c(=O)[nH]c4cc(C(F)F)ccc4n23)cccc1-n1c(=O)[nH]c2c(F)cccc2c1=O | 0.0536 µM | – | – | – |
| CC(C)(O)c1ccc2c(c1)[nH]c(=O)c1ccc(-c3cccc(-n4c(=O)[nH]c5c(F)cccc5c4=O)c3)n12 | 0.0737 µM | – | – | – |

The next lines start with results.

| IC50 [2] | IC50 (Ramos) | IC50 (U-937 [3]) | SMILES | further results |
| --- | --- | --- | --- | --- |
| 0.015 µM | > 40 µM | > 40 µM | CC(C)(O)c1ccc2c(c1)[nH]c(=O)c1ccc(-c3cccc(-n4c(=O)[nH]c5c(F)cccc5c4=O)c3CO)n12 | solubility [1]: 8.4 µg/mL (≈ 16 µM) |
| 0.0181 µM | 16.8 µM | 15.9 µM | Cc1c(-c2ccc3c(=O)[nH]c4cc(C(C)(C)O)ccc4n23)cccc1N1CNc2c(F)cccc2C1=O | – |
| 0.0107 µM | > 40 µM | 12.5 µM | CC(C)(O)c1ccc2c(c1)[nH]c(=O)c1ccc(-c3cccc(-n4c(=O)[nH]c5c(F)cccc5c4=O)c3C(F)F)n12 | – |
| 0.0058 µM | > 40 µM | > 40 µM | Cc1c(-c2c(F)cc3c(=O)[nH]c4cc(C(C)(C)O)ccc4n23)cccc1-n1c(=O)[nH]c2c(F)cccc2c1=O | – |
| 0.0607 µM | – | – | Cc1c(-c2ccc3c(=O)[nH]c4cc(C(F)(F)F)ccc4n23)cccc1-n1c(=O)[nH]c2c(F)cccc2c1=O | – |
| 0.0083 µM | 19.9 µM | 11.6 µM | Cc1c(-c2ccc3c(=O)[nH]c4cc(C(C)(C)O)ccc4n23)cccc1-n1c(=O)[nH]c2c(F)cccc2c1=O | inhibition in vivo at 50 mg/kg (U-937 [4]): 28.7%; Stability [5]: Stable; Cmax [6]: 14.2 ng/mL; AUC(0-t) at 24 h [7]: 51.9 ng·h/mL; MRT last at 5 h [8]: 1.02 h; solubility [1]: 1.1 µg/mL (≈ 2.15 µM); AUC(0-t) at 5 h [9]: 39.7 ng·h/mL; Tmax [10]: 1 h |
| 0.0542 µM | – | – | Cc1c(-c2ccc3c(=O)[nH]c4cc(C(C)(C)O)ccc4n23)cccc1-n1c(=O)oc2c(F)cccc2c1=O | – |
| 0.0368 µM | – | – | Cc1c(-c2ccc3c(=O)[nH]c4cc(C(C)(C)O)ccc4n23)cccc1N1CC(=O)Nc2c(F)cccc2C1=O | solubility [1]: 6.3 µg/mL (≈ 12 µM) |
| > 1 µM | – | – | Cc1c(-c2ccc(C(N)=O)n2-c2ccc(C(C)(C)O)cc2)cccc1-n1c(=O)[nH]c2c(F)cccc2c1=O | solubility [1]: 30.6 µg/mL (≈ 59.7 µM) |
| 0.0648 µM | – | – | Cc1c(-c2ccc3c(=O)[nH]c(-c4ccc(C(C)(C)O)cc4)cn23)cccc1-n1c(=O)[nH]c2c(F)cccc2c1=O | solubility [1]: < 0.5 µg/mL |
| 0.0173 µM | 23.7 µM | 12 µM | Cc1c(-c2ccc3c(=O)[nH]c4cc(C(C)(C)O)ccc4n23)cc(F)cc1-n1c(=O)[nH]c2c(F)cccc2c1=O | – |
| 0.0221 µM | > 40 µM | > 40 µM | Cc1c(-c2ccc3c(=O)[nH]c4cc(C(C)(C)O)ccc4n23)cccc1N1C(=O)c2cccc(F)c2C1=O | – |
